{"source": "patent US20090281049A1", "about": "“New use of ginsenoside compound-k in manufacturing medicaments” (priority 2006, published 2009)", "system": "Adjuvant Arthritis in rats", "test": "Preventive effect on adjuvant induced adjuvant arthritis in rats", "assay_type": "in vivo, Rat, SD strain", "description": "Freund's Adjuvant Complete, purchased from Sigma Company, was injected into the plantar surface of the right hind paw by 0.1 ml in order to induce inflammation in rats.\nAnimals were firstly divided into large dose group: 10 mg/kg, iv, medium dose group: 5 mg/kg, iv, small dose group: 2.5 mg/kg, iv, Indomethacin group: 1 mg/kg, po, Tripterygium Wilfordii Hook group: 1.5 mg/kg, po and blank control group: physiological saline 10 mg/kg, iv. The volume of the right hind paw of the rats was measured by using hydroplethismometer before inflammation induced. Then 0.1 ml Freund's Adjuvant Complete was injected into the plantar surface of the right hind paw in order to induce inflammation in rats. The rats were grouped by the foregoing division way in the succeeding day, and to be administered for 15 days. The volume of paw was measured in regular intervals. Swell rate and inhibition rate were calculated by the same method as the foregoing. Differences among groups were compared by t test."}
{"smiles": "CC(C)=CCC[C@](C)(O[C@@H]1O[C@H](CO)[C@@H](O)[C@H](O)[C@H]1O)[C@H]1CC[C@]2(C)[C@@H]1[C@H](O)C[C@@H]1[C@@]3(C)CC[C@H](O)C(C)(C)[C@@H]3CC[C@]12C", "note": "[Ginsenoside Compound-K, ginsenoside Compound-K]", "values": [{"measurement": "swell value", "setting": "2.5 mg/kg iv, 0 day", "result": "1.24 ± 0.08", "unit": "mL"}, {"measurement": "inhibition rate", "setting": "2.5 mg/kg iv, 2 day", "result": "<21.71> %"}, {"measurement": "swell rate", "setting": "2.5 mg/kg iv, 2 day", "result": "(56.65 ± 17.83) %"}, {"measurement": "swell value", "setting": "2.5 mg/kg iv, 2 day", "result": "2.14 ± 0.15", "unit": "mL"}, {"measurement": "inhibition rate", "setting": "2.5 mg/kg iv, 4 day", "result": "<18.33> %"}, {"measurement": "swell rate", "setting": "2.5 mg/kg iv, 4 day", "result": "(73.11 ± 15.82) %"}, {"measurement": "swell value", "setting": "2.5 mg/kg iv, 4 day", "result": "2.14 ± 0.15", "unit": "mL"}, {"measurement": "inhibition rate", "setting": "2.5 mg/kg iv, 6 day", "result": "<20.67> %"}, {"measurement": "swell rate", "setting": "2.5 mg/kg iv, 6 day", "result": "(70.87 ± 14.91) %"}, {"measurement": "swell value", "setting": "2.5 mg/kg iv, 6 day", "result": "2.11 ± 0.10", "unit": "mL"}, {"measurement": "inhibition rate", "setting": "2.5 mg/kg iv, 9 day", "result": "<20.95> %"}, {"measurement": "swell rate", "setting": "2.5 mg/kg iv, 9 day", "result": "(57.25 ± 14.42) %"}, {"measurement": "swell value", "setting": "2.5 mg/kg iv, 9 day", "result": "1.95 ± 0.17", "unit": "mL"}, {"measurement": "inhibition rate", "setting": "2.5 mg/kg iv, 11 day", "result": "<20.82> %"}, {"measurement": "swell rate", "setting": "2.5 mg/kg iv, 11 day", "result": "(61.69 ± 21.61) %"}, {"measurement": "swell value", "setting": "2.5 mg/kg iv, 11 day", "result": "2.00 ± 0.26", "unit": "mL"}, {"measurement": "inhibition rate", "setting": "2.5 mg/kg iv, 13 day", "result": "<25.97> %"}, {"measurement": "swell rate", "setting": "2.5 mg/kg iv, 13 day", "result": "(61.24 ± 13.26) %"}, {"measurement": "swell value", "setting": "2.5 mg/kg iv, 13 day", "result": "2.00 ± 0.15", "unit": "mL"}, {"measurement": "inhibition rate", "setting": "2.5 mg/kg iv, 15 day", "result": "<28.05> %"}, {"measurement": "swell rate", "setting": "2.5 mg/kg iv, 15 day", "result": "(58.02 ± 15.92) %"}, {"measurement": "swell value", "setting": "2.5 mg/kg iv, 15 day", "result": "1.96 ± 0.20", "unit": "mL"}, {"measurement": "swell value", "setting": "5 mg/kg iv, 0 day", "result": "1.25 ± 0.06", "unit": "mL"}, {"measurement": "inhibition rate", "setting": "5 mg/kg iv, 2 day", "result": "<35.56> %"}, {"measurement": "swell rate", "setting": "5 mg/kg iv, 2 day", "result": "(46.63 ± 11.66) %"}, {"measurement": "swell value", "setting": "5 mg/kg iv, 2 day", "result": "2.10 ± 0.21", "unit": "mL"}, {"measurement": "inhibition rate", "setting": "5 mg/kg iv, 4 day", "result": "<23.65> %"}, {"measurement": "swell rate", "setting": "5 mg/kg iv, 4 day", "result": "(68.35 ± 15.68) %"}, {"measurement": "swell value", "setting": "5 mg/kg iv, 4 day", "result": "2.10 ± 0.21", "unit": "mL"}, {"measurement": "inhibition rate", "setting": "5 mg/kg iv, 6 day", "result": "<17.94> %"}, {"measurement": "swell rate", "setting": "5 mg/kg iv, 6 day", "result": "(73.31 ± 17.73) %"}, {"measurement": "swell value", "setting": "5 mg/kg iv, 6 day", "result": "2.16 ± 0.18", "unit": "mL"}, {"measurement": "inhibition rate", "setting": "5 mg/kg iv, 9 day", "result": "<20.45> %"}, {"measurement": "swell rate", "setting": "5 mg/kg iv, 9 day", "result": "(57.60 ± 13.83) %"}, {"measurement": "swell value", "setting": "5 mg/kg iv, 9 day", "result": "1.97 ± 0.21", "unit": "mL"}, {"measurement": "inhibition rate", "setting": "5 mg/kg iv, 11 day", "result": "<28.37> %"}, {"measurement": "swell rate", "setting": "5 mg/kg iv, 11 day", "result": "(55.81 ± 11.54) %"}, {"measurement": "swell value", "setting": "5 mg/kg iv, 11 day", "result": "1.95 ± 0.18", "unit": "mL"}, {"measurement": "inhibition rate", "setting": "5 mg/kg iv, 13 day", "result": "<27.79> %"}, {"measurement": "swell rate", "setting": "5 mg/kg iv, 13 day", "result": "(59.74 ± 11.82) %"}, {"measurement": "swell value", "setting": "5 mg/kg iv, 13 day", "result": "2.00 ± 0.18", "unit": "mL"}, {"measurement": "inhibition rate", "setting": "5 mg/kg iv, 15 day", "result": "<29.21> %"}, {"measurement": "swell rate", "setting": "5 mg/kg iv, 15 day", "result": "(57.08 ± 14.00) %"}, {"measurement": "swell value", "setting": "5 mg/kg iv, 15 day", "result": "1.96 ± 0.21", "unit": "mL"}, {"measurement": "swell value", "setting": "10 mg/kg iv, 0 day", "result": "1.29 ± 0.08", "unit": "mL"}, {"measurement": "inhibition rate", "setting": "10 mg/kg iv, 2 day", "result": "<29.48> %"}, {"measurement": "swell rate", "setting": "10 mg/kg iv, 2 day", "result": "(51.03 ± 8.03) %"}, {"measurement": "swell value", "setting": "10 mg/kg iv, 2 day", "result": "2.17 ± 0.14", "unit": "mL"}, {"measurement": "inhibition rate", "setting": "10 mg/kg iv, 4 day", "result": "<22.99> %"}, {"measurement": "swell rate", "setting": "10 mg/kg iv, 4 day", "result": "(68.94 ± 10.49) %"}, {"measurement": "swell value", "setting": "10 mg/kg iv, 4 day", "result": "2.17 ± 0.14", "unit": "mL"}, {"measurement": "inhibition rate", "setting": "10 mg/kg iv, 6 day", "result": "<19.52> %"}, {"measurement": "swell rate", "setting": "10 mg/kg iv, 6 day", "result": "(71.90 ± 9.64%"}, {"measurement": "swell value", "setting": "10 mg/kg iv, 6 day", "result": "2.21 ± 0.15", "unit": "mL"}, {"measurement": "inhibition rate", "setting": "10 mg/kg iv, 9 day", "result": "<19.59> %"}, {"measurement": "swell rate", "setting": "10 mg/kg iv, 9 day", "result": "(58.23 ± 11.44) %"}, {"measurement": "swell value", "setting": "10 mg/kg iv, 9 day", "result": "2.03 ± 0.15", "unit": "mL"}, {"measurement": "inhibition rate", "setting": "10 mg/kg iv, 11 day", "result": "<30.08> %"}, {"measurement": "swell rate", "setting": "10 mg/kg iv, 11 day", "result": "(54.48 ± 12.39) %"}, {"measurement": "swell value", "setting": "10 mg/kg iv, 11 day", "result": "1.98 ± 0.14", "unit": "mL"}, {"measurement": "inhibition rate", "setting": "10 mg/kg iv, 13 day", "result": "<29.83> %"}, {"measurement": "swell rate", "setting": "10 mg/kg iv, 13 day", "result": "(58.04 ± 10.97) %"}, {"measurement": "swell value", "setting": "10 mg/kg iv, 13 day", "result": "2.03 ± 0.13", "unit": "mL"}, {"measurement": "inhibition rate", "setting": "10 mg/kg iv, 15 day", "result": "<31.26> %"}, {"measurement": "swell rate", "setting": "10 mg/kg iv, 15 day", "result": "(55.42 ± 14.65) %"}, {"measurement": "swell value", "setting": "10 mg/kg iv, 15 day", "result": "1.99 ± 0.18", "unit": "mL"}, {"measurement": "overall preventive effect on Adjuvant Arthritis", "setting": "rats, 10, 5, 2.5 mg/kg iv for 15 days", "result": "able to prevent Adjuvant Arthritis in rats"}]}
